Reference: the NIST ThermoML archive (doi:10.1016/j.jct.2006.08.002)

Assay: xn = mol fraction of the nth substance listed
Conditions: Fluid (supercritical or subcritical phases), Constant-volume piezometry

CCO [ethanol] + O
Conditions | mass density [kg/m3]
598.15 K, 15540 kPa, x1 = 0.2 | 308.36
598.15 K, 15600 kPa, x1 = 0.8 | 243.3
598.15 K, 15640 kPa, x1 = 0.2 | 325.01
598.15 K, 16230 kPa, x1 = 0.8 | 260.09
598.15 K, 16810 kPa, x1 = 0.2 | 420.24
598.15 K, 17080 kPa, x1 = 0.8 | 283.38
598.15 K, 18140 kPa, x1 = 0.8 | 306.39
598.15 K, 18350 kPa, x1 = 0.8 | 311.71
598.15 K, 19160 kPa, x1 = 0.5 | 326.69
598.15 K, 21410 kPa, x1 = 0.8 | 366.53
598.15 K, 21610 kPa, x1 = 0.5 | 384.81
598.15 K, 21850 kPa, x1 = 0.5 | 418.8
598.15 K, 22460 kPa, x1 = 0.8 | 381.79
598.15 K, 24130 kPa, x1 = 0.5 | 420.47
598.15 K, 24210 kPa, x1 = 0.5 | 423.68
598.15 K, 24610 kPa, x1 = 0.8 | 404.76
598.15 K, 27590 kPa, x1 = 0.2 | 547.13
598.15 K, 28350 kPa, x1 = 0.8 | 438.59
598.15 K, 28670 kPa, x1 = 0.5 | 462.7
598.15 K, 38940 kPa, x1 = 0.5 | 520.65
598.15 K, 48240 kPa, x1 = 0.2 | 617.36
598.15 K, 48500 kPa, x1 = 0.5 | 554.28
603.15 K, 10470 kPa, x1 = 0.2 | 67.54
603.15 K, 12120 kPa, x1 = 0.5 | 117.18
603.15 K, 14860 kPa, x1 = 0.5 | 170.89
603.15 K, 16860 kPa, x1 = 0.2 | 350.86
603.15 K, 16940 kPa, x1 = 0.5 | 234.07
603.15 K, 18730 kPa, x1 = 0.5 | 293.15
613.15 K, 23290 kPa, x1 = 0.2 | 452.8
623.15 K, 6210 kPa, x1 = 0.8 | 53.01
623.15 K, 7610 kPa, x1 = 0.5 | 55.79
623.15 K, 9230 kPa, x1 = 0.5 | 69.05
623.15 K, 10590 kPa, x1 = 0.5 | 84.15
623.15 K, 11070 kPa, x1 = 0.8 | 114.64
623.15 K, 13180 kPa, x1 = 0.5 | 117.07
623.15 K, 13400 kPa, x1 = 0.2 | 89.94
623.15 K, 15510 kPa, x1 = 0.8 | 187.93
623.15 K, 16770 kPa, x1 = 0.2 | 137.9
623.15 K, 18300 kPa, x1 = 0.8 | 242.99
623.15 K, 19450 kPa, x1 = 0.2 | 221.42
623.15 K, 20470 kPa, x1 = 0.8 | 283.01
623.15 K, 20590 kPa, x1 = 0.2 | 286.35
623.15 K, 21000 kPa, x1 = 0.2 | 307.94
623.15 K, 21380 kPa, x1 = 0.2 | 324.56
623.15 K, 21860 kPa, x1 = 0.8 | 305.99
623.15 K, 21920 kPa, x1 = 0.2 | 350.47
623.15 K, 22240 kPa, x1 = 0.8 | 311.3
623.15 K, 24920 kPa, x1 = 0.2 | 420.24
623.15 K, 26360 kPa, x1 = 0.8 | 366.04
623.15 K, 27820 kPa, x1 = 0.8 | 381.27
623.15 K, 27940 kPa, x1 = 0.5 | 384.27
623.15 K, 30710 kPa, x1 = 0.8 | 404.2
623.15 K, 31220 kPa, x1 = 0.5 | 418.2
623.15 K, 31480 kPa, x1 = 0.5 | 419.87
623.15 K, 31720 kPa, x1 = 0.5 | 423.08
623.15 K, 36430 kPa, x1 = 0.8 | 444.29
623.15 K, 37340 kPa, x1 = 0.5 | 462.02
623.15 K, 41330 kPa, x1 = 0.2 | 546.22
623.15 K, 50360 kPa, x1 = 0.5 | 519.83
628.15 K, 19790 kPa, x1 = 0.8 | 259.69
628.15 K, 36970 kPa, x1 = 0.8 | 437.84
633.15 K, 11600 kPa, x1 = 0.2 | 67.45
633.15 K, 13740 kPa, x1 = 0.5 | 117.01
633.15 K, 17410 kPa, x1 = 0.5 | 170.64
633.15 K, 23850 kPa, x1 = 0.5 | 292.69
633.15 K, 26000 kPa, x1 = 0.5 | 326.07
638.15 K, 21420 kPa, x1 = 0.5 | 233.65
643.15 K, 35160 kPa, x1 = 0.2 | 451.97
648.15 K, 6600 kPa, x1 = 0.8 | 52.95
648.15 K, 8080 kPa, x1 = 0.5 | 55.72
648.15 K, 9890 kPa, x1 = 0.5 | 68.96
648.15 K, 11430 kPa, x1 = 0.5 | 84.05
648.15 K, 12050 kPa, x1 = 0.8 | 114.5
648.15 K, 14470 kPa, x1 = 0.5 | 116.92
648.15 K, 14680 kPa, x1 = 0.2 | 89.83
648.15 K, 17440 kPa, x1 = 0.8 | 187.69
648.15 K, 19110 kPa, x1 = 0.2 | 137.73
648.15 K, 23400 kPa, x1 = 0.2 | 221.13
648.15 K, 25670 kPa, x1 = 0.8 | 305.59
648.15 K, 25860 kPa, x1 = 0.2 | 285.96
648.15 K, 26120 kPa, x1 = 0.8 | 310.89
648.15 K, 26740 kPa, x1 = 0.2 | 307.52
648.15 K, 28730 kPa, x1 = 0.2 | 349.97
648.15 K, 31420 kPa, x1 = 0.8 | 365.54
648.15 K, 33230 kPa, x1 = 0.8 | 380.75
648.15 K, 33660 kPa, x1 = 0.2 | 420.24
648.15 K, 34330 kPa, x1 = 0.5 | 383.73
648.15 K, 36760 kPa, x1 = 0.8 | 403.64
648.15 K, 39020 kPa, x1 = 0.5 | 419.27
653.15 K, 19550 kPa, x1 = 0.2 | 137.7
653.15 K, 21530 kPa, x1 = 0.8 | 242.62
653.15 K, 22750 kPa, x1 = 0.8 | 259.36
653.15 K, 24460 kPa, x1 = 0.8 | 282.58
653.15 K, 26990 kPa, x1 = 0.8 | 310.81
653.15 K, 28660 kPa, x1 = 0.2 | 324.03
653.15 K, 34300 kPa, x1 = 0.8 | 380.65
653.15 K, 35620 kPa, x1 = 0.5 | 383.63
653.15 K, 40110 kPa, x1 = 0.5 | 417.48
653.15 K, 40890 kPa, x1 = 0.5 | 422.34
653.15 K, 44100 kPa, x1 = 0.8 | 437.21
653.15 K, 48080 kPa, x1 = 0.5 | 461.19
673.15 K, 6990 kPa, x1 = 0.8 | 52.89
673.15 K, 8570 kPa, x1 = 0.5 | 55.65
673.15 K, 10540 kPa, x1 = 0.5 | 68.88
673.15 K, 12250 kPa, x1 = 0.5 | 83.95
673.15 K, 12980 kPa, x1 = 0.2 | 67.32
673.15 K, 13010 kPa, x1 = 0.8 | 114.36
673.15 K, 15740 kPa, x1 = 0.5 | 116.78
673.15 K, 15940 kPa, x1 = 0.2 | 89.72
673.15 K, 19310 kPa, x1 = 0.8 | 187.46
673.15 K, 20680 kPa, x1 = 0.5 | 170.3
673.15 K, 21310 kPa, x1 = 0.2 | 137.56
673.15 K, 23620 kPa, x1 = 0.8 | 242.38
673.15 K, 25130 kPa, x1 = 0.8 | 259.1
673.15 K, 25740 kPa, x1 = 0.5 | 233.23
673.15 K, 27230 kPa, x1 = 0.8 | 282.28
673.15 K, 27430 kPa, x1 = 0.2 | 220.84
673.15 K, 29500 kPa, x1 = 0.8 | 305.19
673.15 K, 30040 kPa, x1 = 0.8 | 310.49
673.15 K, 30620 kPa, x1 = 0.5 | 292.07
673.15 K, 31230 kPa, x1 = 0.2 | 285.57
673.15 K, 32510 kPa, x1 = 0.2 | 307.09
673.15 K, 33730 kPa, x1 = 0.2 | 323.66
673.15 K, 34050 kPa, x1 = 0.5 | 325.37
673.15 K, 35510 kPa, x1 = 0.2 | 349.48
673.15 K, 36420 kPa, x1 = 0.8 | 365.05
673.15 K, 38700 kPa, x1 = 0.8 | 380.23
673.15 K, 40850 kPa, x1 = 0.5 | 383.2
673.15 K, 42660 kPa, x1 = 0.2 | 420.24
673.15 K, 42950 kPa, x1 = 0.8 | 403.08
673.15 K, 46620 kPa, x1 = 0.5 | 418.66
673.15 K, 47140 kPa, x1 = 0.2 | 451.15
